Read-outs that look alike come from different tables or passages of the source.
Assays:
KRAS^G12C/SOS1 = molecular target: T1, KRAS^G12C/SOS1 (Homo sapiens, UniProt P01116, G12C); experiment: KRAS^G12C/SOS1 protein-protein interaction Binding assay (CisBio kit); conditions: class symbols
T1 construct: purchased CisBio
Experimental: CisBio’s KRAS^G12C/SOS1 kit was used to test the efficacy of the compound on inhibiting the protein-protein interaction between SOS1 and KRAS^G12Cby Binding assay.Results were expressed as IC50values.
Test methods: (1) the test compound was tested at a concentration of 1000 nM. Diluted to 3-fold diluted compound of a 200-fold final concentration of 100% DMSO solution in a 384-well plate at 10 concentrations. 50 nL of 200-fold final concentration of compound was transferred to the destination plate 384 well plate using a dispenser Echo 550.50 nL of 100% DMSO was added to the negative control wells and positive control wells; (2) 4-fold final concentration of Tag1 SOS1 solution was prepared using Diluent buffer; (3) 2.5 µL of 4-fold final concentration of Tag1 SOS1 solution was added to the 384-well plate; (4) 4-fold final concentration of Tag2 KRAS^G12C solution was prepared using Diluent buffer; (5) 2.5 µL of 4-fold final concentration of Tag2 KRAS^G12C solution was added to compound wells and positive control wells, respectively; 2.5 µL of diluent buffer was added to negative control wells; (6) the 384-well plate was centrifuged at 1000 rpm for 30 seconds, shaken and mixed, and incubated at room temperature for 15 min; (7) 1-fold final concentration of Anti Tag1 TB3+ solution and 1-fold final concentration of Anti Tag2 XL665 solution were prepared with Detection buffer, and 5 µL of the mixture was added to each well after mixing the two solutions; (8) the 384-well plate was centrifuged at 1000 rpm for 30 seconds, shaken and mixed, and incubated at room temperature for 120 minutes; (9) the Envision enzyme marker was used to read
Em665/620; (10) data analysis, calculation formula; where Min signal is the mean value of negative control wells, Max signal is the mean value of positive control wells.The log value of concentration was used as the X-axis and the percentage inhibition as the Y-axis to fit the quantitative efficacy curve using the log(inhibitor) vs. response Variable slope of the quantitative efficacy curve of the analytical software GraphPad Prism 5 to derive the IC50 value of each compound on the enzyme activity.The fitting formula was: Y=Bottom+(Top Bottom)/(1+10^A((LogIC50X)^∗ HillSlope)).

[1] = tested on: MiaPaca-2 cells (pancreatic cancer); experiment: Proliferation test method 1 (2D, MTT), MiaPaca-2; format: cell-based; conditions: 5-7 days, read-out: IC50/nM proliferation inhibitory activity on MiaPaca-2 cells
Experimental: (§1) Test method 1 (2D):NCI-H358 (lung cancer) and MiaPaca-2 cells (pancreatic cancer) cells (100 µL/well, 20,000 cells/mL) were inoculated in 96-well culture plates supplemented with 10% fetal bovine serum and 1% penicillin/streptomycin sulfate, respectively.Using 0.5% dimethyl sulfoxide as a blank control, cells were treated with a solution of the compound to be tested at a starting concentration of 10 µM, tripled diluted testing solution of the compound in eight gradients were used to treat cells, and then incubated in a 5% CO2 incubator for a certain period of time (5-7 days).At the end of incubation, 10 µL of MTT stock solution (5 mg/mL) was added to each well.The culture plates were incubated at 37° C. for 4 h and then the medium was removed.Dimethyl sulfoxide (100 µL) was added to each well and then shaken sufficiently. The absorbance of the product formazanwas measured at 570 nm on the Thermo Scientific Varioskan Flash multimode reader.IC50 values were obtained by fitting dose-response data into a three-parameter nonlinear regression model using GraphPad Prism 6.0 software.

[2] = tested on: NCI-H358 (lung cancer) cells; experiment: Proliferation test method 1 (2D, MTT), NCI-H358; format: cell-based; conditions: Homo sapiens, 5-7 days, read-out: IC50 proliferation inhibitory activity against NCI-H358
Experimental: as §1

[3] = tested on: phosphorylated ERK levels of NCI-H358; experiment: ERK phosphorylation (western blot), H358; format: cell-based; conditions: Homo sapiens, 3 h
Experimental: (§2) Test method 3 (ERK phosphorylation): Miapaca-2 or H358 cells were inoculated at certain concentrations in 96-well plates and incubated overnight at 37° C., 5% CO2 in a cell culture incubator, and serial dilutions of the test compound (5 concentrations, 3-fold dilution) were added to the plates the next day for 24 h (Miapaca-2) or 3 h (H358), then lysis solution containing protease and phosphatase inhibitor were added to lyse the cells to extract proteins and western blot method was used to detect the level of p-ERK.

[4] = tested on: phosphorylated ERK levels of MiaPaca-2; experiment: ERK phosphorylation (western blot), MiaPaca-2; format: cell-based; conditions: Homo sapiens, MIA PaCa-2, 24 h
Experimental: as §2

NCI-H358 cells = experiment: Proliferation test method 2 (3D, Cell Titer Glo 3D), NCI-H358; format: cell-based; conditions: Homo sapiens, NCI-H358, 96 h, read-out: IC50 cell proliferation inhibitory activity against NCI-H358
Experimental: (§3) Test method 2 (3D): The tumor cells in the logarithmic growth phase were diluted with culture solution to a certain concentration and inoculated on the 96-well plate on the ultra-low attachment surface, and the culture medium was 80 µL/well. Cells were incubated overnight at 37° C. in a humidity chamber. On the second day, a series of diluted test compounds (10 concentrations, 3 times dilution) were added to the plate, 20 µL/well, incubated in an incubator for 96h.The plates are removed and placed at room temperature and incubated with an equal volume of Cell Titer Glo®3D reagent for 1 h. The signal is detected by the En Vision™ plate reader. […] A four-parameter nonlinear regression curve was fitted to the percent inhibition for each concentration of the compound and the IC50 was calculated.

MiaPaca-2 cells = experiment: Proliferation test method 2 (3D, Cell Titer Glo 3D), MiaPaca-2; format: cell-based; conditions: Homo sapiens, MIA PaCa-2, 96 h, read-out: IC50 cell proliferation inhibitory activity against MiaPaca-2
Experimental: as §3

T1 sequence (P01116 1-188 isoform P01116-2 G12C): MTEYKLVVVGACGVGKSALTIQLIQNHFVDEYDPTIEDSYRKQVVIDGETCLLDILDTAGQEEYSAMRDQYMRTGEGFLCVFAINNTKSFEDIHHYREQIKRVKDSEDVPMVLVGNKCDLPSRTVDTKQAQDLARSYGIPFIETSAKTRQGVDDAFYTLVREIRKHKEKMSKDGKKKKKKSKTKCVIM

Structure (SMILES)	IC50 (KRAS^G12C/SOS1)	IC50 ([1]; Homo sapiens, MIA PaCa-2, 2D)	other results
C=CC(=O)N1CCN(c2nc(NCCC(=O)N(C)C)nc3c(F)c(-c4ccc(F)c5sc(N)nc45)c(Cl)cc23)CC1 [Example 19, 3-((4-(4-Acryloylpiperazin-1-yl)-7-(2-Amino-7-Fluorobenzo [d] Thiazol-4-yl)-6-Chloro-8-Fluoroquinazolin-2-yl) Amino)-N,N-Dimethylpropanamide]	50 to 200 nM	28 nM	
C=C(F)C(=O)N1C[C@@H]2C(=O)N(C)c3cnc4c(F)c(-c5ccc(F)c6sc(N)nc56)c(Cl)cc4c3N2C[C@H]1C [Example 28, (2R,4aR)-10-(2-Amino-7-Fluorobenzo[d]Thiazol-4-yl)-11-Chloro-9-Fluoro-3-(2-Fluoroacryloyl)-2,6-Dimethyl-2,3,4,4a-Tetrahydro-1H-Pyrazin [1′,2′:4,5] Pyrazin [2,3-c] Quinolin-5(6H)-one]	50 to 200 nM	63.2 nM	
C=CC(=O)N1CC2C(=O)N(C)c3cnc4c(F)c(-c5c(O)cccc5F)c(Cl)cc4c3N2CC1C (single isomer, unassigned) [Comparative Compound 2-2, reference compound]	> 1000 nM		
C=CC(=O)N1CCN(c2nc(OC[C@@H]3C[C@@H](F)CN3C)nc3c(F)c(-c4ccc(F)c5sc(N)nc45)c(Cl)cc23)CC1 [Example 27]	< 50 nM		IC50 ([1]; 2D): < 1 nM
C=CC(=O)N1CCN(c2nc(OC[C@@H]3C[C@H](F)CN3C)nc3c(F)c(-c4ccc(F)c5sc(N)nc45)c(Cl)cc23)CC1 [Example 25]	< 50 nM		IC50 [2]: < 100 nM; IC50 [3]: < 500 nM; IC50 [4]: < 500 nM
C=CC(=O)N1CCN(c2nc(NC[C@@H]3CCCN3C)nc3c(F)c(-c4ccc(F)c5sc(N)nc45)c(Cl)cc23)CC1 [Example 2, 1-(4-(7-(2-Amino-7-Fluorobenzo[d]Thiazol-4-yl)-6-Chloro-8-Fluoro-2-((((S)-1-Methylpyrrolidin-2-yl)Methyl)Amino)Quinazolin-4-yl)Piperazin-1-yl)Prop-2-En-1-One]	< 50 nM	13.2 nM	IC50 (NCI-H358 cells): < 200 nM; IC50 (MiaPaca-2 cells): < 200 nM
C=CC(=O)N1CCN(c2nc(OC[C@@H]3CCCN3C)nc3c(F)c(-c4ccc(F)c5sc(N)nc45)c(Cl)cc23)CC1CC#N (stereo partly drawn) [Example 12, 2-(1-acryloyl-4-(7-(2-Amino-7-Fluorobenzo [d] Thiazol-4-yl) -6-Chloro-8-Fluoro-2-(((S)-1-Methylpyrrolidin-2-yl) Methoxy) Quinazolin-4-yl) Piperazin-2-yl) Acetonitrile]	50 to 200 nM	19.3 nM	
C=CC(=O)N1CCN(c2c(C#N)c(Cl)nc3c(F)c(-c4ccc(F)c5sc(N)nc45)c(Cl)cc23)CC1 [Example 7]	50 to 200 nM	23.1 nM	
C=C(F)C(=O)N1CCN(c2c(C#N)cnc3c(F)c(-c4ccc(F)c5sc(N)nc45)c(Cl)cc23)CC1 [Example 9, 7-(2-Amino-7-Fluorobenzo [d] Thiazol-4-yl) -6-Chloro-8-Fluoro-4-(4-(2-Fluoroacryloyl) Piperazin-1-yl) Quinolin-3-Cyano]	50 to 200 nM	362 nM	
C=CC(=O)N1CCN(c2nc(Cl)nc3c(F)c(-c4ccc(F)c5sc(N)nc45)c(Cl)cc23)CC1 [Example 6, 1-(4-(7-(2-Amino-7-Fluorobenzo [d] Thiazol-4-yl)-2,6-Dichloro-8-Fluoroquinazolin-4-yl) Piperazin-1-yl) Prop-2-Ene-1-One]	50 to 200 nM	35 nM	
C=CC(=O)N1C[C@@H]2C(=O)N(C)c3cnc4c(F)c(-c5ccc(F)c6sc(N)nc56)c(Cl)cc4c3N2C[C@H]1C (single isomer, unassigned) [Example 17-2]			IC50 ([1]; 2D): 23.1 nM
C=CC(=O)N1CCN(c2c(C#N)c(NCCC(=O)N(C)C)nc3c(F)c(-c4ccc(F)c5sc(N)nc45)c(Cl)cc23)CC1 [Example 22, 3-((4-(4-Acryloylpiperazin-1-yl)-7-(2-Amino-7-Fluorobenzo [d] Thiazol-4-yl)-6-Chloro-3-Cyano-8-Fluoroquinolin-2-yl) Amino)-N,N-Dimethylpropanamide]	50 to 200 nM	0.93 nM	
C=CC(=O)N1CCN(c2c(C#N)cnc3c(F)c(-c4ccc(F)c5sc(N)nc45)c(Cl)cc23)C[C@H]1C [Example 16, 4-((R)-4-Acryloyl-3-Methylpiperazin-1-yl)-7-(2-Amino-7-Fluorobenzo [d] Thiazol-4-yl)-6-Chloro-8-Fluoroquinolin-3 -Cyano]	50 to 200 nM		IC50 [2]: < 100 nM; IC50 (NCI-H358 cells): < 200 nM; IC50 (MiaPaca-2 cells): < 200 nM; IC50 [3]: < 500 nM; IC50 [4]: < 500 nM
C=CC(=O)N1CCN(c2c(C#N)c(NC[C@@H]3CCCN3C)nc3c(F)c(-c4ccc(F)c5sc(N)nc45)c(Cl)cc23)CC1 [Example 4, 4-(4-Piperazinylacryloylpiperazin-1-yl)-7-(2-Amino-7-Fluorobenzo[d]Thiazol-4-Yl)-6-Chloro-8-Fluoro-2-((((S)-1-Methylpyrrolin-2-yl)Methyl)Amino)Quinoline-3-Cyano]	< 50 nM	1.1 nM	
C=CC(=O)N1CCN(c2c(C#N)cnc3c(F)c(-c4ccc(F)c5sc(N)nc45)c(Cl)cc23)CC1CC#N (centres unmarked) [Example 15, 4-(4-Acryloyl-3-(Cyanomethyl) Piperazin-1-yl)-7-(2-Amino-7-Fluorobenzo [d] Thiazol-4-yl)-6-Chloro-8-Fluoroquinolin-3-Cyano]	200 to 1000 nM	390 nM	
C=CC(=O)N1CCN(c2nc(OC[C@@H]3C[C@@H](O)CN3C)nc3c(F)c(-c4ccc(F)c5sc(N)nc45)c(Cl)cc23)CC1 [Example 24, 1-(4-(7-(2-Amino-7-Fluorobenzo[d]Thiazol-4-yl)-6-Chloro-8-Fluoro-2-(((2S,4R)-4-Hydroxy-1-Methylpyrrolin-2-yl) Methoxy) Quinazolin-4-yl) Piperazin-1-yl) Prop-2-En-1-One]	< 50 nM	< 1 nM	
C=CC(=O)N1CCN(c2nc(OCCN(C)C)nc3c(F)c(-c4ccc(F)c5sc(N)nc45)c(Cl)cc23)CC1 [Example 5]	< 50 nM		IC50 [2]: < 100 nM; IC50 (NCI-H358 cells): < 200 nM; IC50 (MiaPaca-2 cells): < 200 nM; IC50 [3]: < 500 nM; IC50 [4]: < 500 nM
